Laboratory results from the supplement of paper PMC11061612.

Assays:
Assay in all cases: Bliss excess, mean over the matrix (fraction); higher = more synergy
[1] = tested on: COR-L88 (Small Cell Lung Carcinoma)
Procedure, shortened: (§1)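 After 24 hours at 37°C and 5% CO2 in 1536-well plates, cells in DMEM/F12 or RPMI plus 10% FBS received two-drug dose matrices for 72 hours. Viability came from CellTiter-Glo 2.0 luminescence and was scaled as inhibition, anchored at 0 by vehicle wells and at 1 by blank wells. Combination Emax is taken as the second-highest inhibition in the matrix, and Bliss excess as the observed combination effect less EA + EB − EA·EB, with EA and EB the single-agent effects.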

[2] = tested on: SNU-423 (Hepatocellular Carcinoma)
Procedure, shortened: as §1

[3] = tested on: RCC-JW (Kidney Carcinoma)
Procedure, shortened: as §1

[4] = tested on: CL-11 (Colorectal Carcinoma)
Procedure, shortened: as §1

NCI-H226 (Mesothelioma) = tested on: NCI-H226 (Mesothelioma)
Procedure, shortened: as §1

[5] = tested on: SK-CO-1 (Colorectal Carcinoma)
Procedure, shortened: as §1

[6] = tested on: CPC-N (Small Cell Lung Carcinoma)
Procedure, shortened: as §1

[7] = tested on: SKG-IIIa (Cervical Carcinoma)
Procedure, shortened: as §1

[8] = tested on: P32-ISH (Burkitt's Lymphoma)
Procedure, shortened: as §1

[9] = tested on: ZR-75-30 (Breast Carcinoma)
Procedure, shortened: as §1

AM-38 (Glioblastoma) = tested on: AM-38 (Glioblastoma)
Procedure, shortened: as §1

[10] = tested on: Raji (Burkitt's Lymphoma)
Procedure, shortened: as §1

[11] = tested on: BxPC-3 (Pancreatic Carcinoma)
Procedure, shortened: as §1

[12] = tested on: SUP-M2 (T-Cell Non-Hodgkin's Lymphoma)
Procedure, shortened: as §1

[13] = tested on: NCI-H3118 (Head and Neck Carcinoma)
Procedure, shortened: as §1

[14] = tested on: OAW-28 (Ovarian Carcinoma)
Procedure, shortened: as §1

[15] = tested on: IA-LM (Non-Small Cell Lung Carcinoma)
Procedure, shortened: as §1

[16] = tested on: SNU-C2B (Colorectal Carcinoma)
Procedure, shortened: as §1

[17] = tested on: NCI-H1876 (Small Cell Lung Carcinoma)
Procedure, shortened: as §1

[18] = tested on: P30-OHK (B-Lymphoblastic Leukemia)
Procedure, shortened: as §1

Row | SMILES | Bliss excess [1] | Bliss excess [2] | Bliss excess [3] | Bliss excess [4] | Bliss excess (NCI-H226 (Mesothelioma)) | Bliss excess [5] | Bliss excess [6] | Bliss excess [7] | Bliss excess [8] | Bliss excess [9] | Bliss excess (AM-38 (Glioblastoma)) | Bliss excess [10] | Bliss excess [11] | Bliss excess [12] | Bliss excess [13] | Bliss excess [14] | Bliss excess [15] | Bliss excess [16] | Bliss excess [17] | Bliss excess [18]
1 | Cn1cnc2c(F)c(Nc3ccc(Br)cc3Cl)c(C(=O)NOCCO)cc21 [Selumetinib] + CC(C)n1c(=O)n(C)c2cnc3cc(F)c(-c4ccc(OCCCN5CCCCC5)nc4)cc3c21 [AZD1390] (first compound max 10 µM, 7x7, partner max 0.3 µM) | -0.0086 | -0.0026 | -0.051 | 0.0011 | -0.0344 | -0.0168 | -0.0396 | -0.0444 | -0.0083 | -0.044 | -0.0389 | -0.0189 | -0.0518 | 0.007 | 0.0525 | 0.0193 | -0.0102 | -0.0081 | 0.0068 | -0.0043
2 | CS(=O)(=O)CCNCc1ccc(-c2ccc3ncnc(Nc4ccc(OCc5cccc(F)c5)c(Cl)c4)c3c2)o1 [Lapatinib] + C[C@@H](Oc1cc(-c2cnn(C3CCNCC3)c2)cnc1N)c1c(Cl)ccc(F)c1Cl [Crizotinib] (first compound max 10 µM, 7x7, partner max 10 µM) | -0.0234 | -0.074 | -0.0455 | -0.0477 | -0.0513 | -0.0721 | -0.0741 | -0.0438 | 0.0037 | -0.0031 | -0.0295 | 0.0203 | -0.0259 | 0.0299 | 0.0337 | -0.0177 | -0.0133 | -0.0515 | 0.0167 | 0.0323
3 | CN(C)CCCOc1ccc(-c2ccc3ncc4c(c3c2)n(C2CCOCC2)c(=O)n4C)cn1 [AZD0156] + CCN(CCO)CCCOc1ccc2c(Nc3cc(CC(=O)Nc4cccc(F)c4)[nH]n3)ncnc2c1 [AZD2811] (first compound max 1 µM, 7x7, partner max 1 µM) | -0.0279 | -0.0192 | -0.0243 | -0.0288 | -0.0676 | 0.0205 | 0.0049 | -0.05 | -0.0042 | -0.0415 | 0.0165 | 0.0082 | -0.0212 | -0.0286 | -0.0316 | -0.0061 | -0.0326 | -0.0227 | -0.0557 | -0.0439
4 | COc1nnc2ccc(N3CCC(c4ccc(OCCN5CCN(C)C(=O)[C@H]5C)cc4)CC3)nn12 [AZD5153] + C=CCn1c(=O)c2cnc(Nc3ccc(N4CCN(C)CC4)cc3)nc2n1-c1cccc(C(C)(C)O)n1 [AZD1775] (first compound max 1 µM, partner max 1 µM) | -0.0249 | -0.0459 | -0.022 | -0.0376 | -0.0349 | -0.0741 | -0.0862 | -0.0221 | -0.0649 | -0.042 | -0.0594 | -0.105 | -0.028 | -0.0123 | -0.0981 | -0.0382 | -0.0554 | -0.035 | 0.0224 | 0.0298
5 | CC1(C)CCC(CN2CCN(c3ccc(C(=O)NS(=O)(=O)c4ccc(NCC5CCOCC5)c([N+](=O)[O-])c4)c(Oc4cnc5[nH]ccc5c4)c3)CC2)=C(c2ccc(Cl)cc2)C1 [Venetoclax] + CN(C)CCCOc1ccc(-c2ccc3ncc4c(c3c2)n(C2CCOCC2)c(=O)n4C)cn1 [AZD0156] (first compound max 1 µM, 7x7, partner max 1 µM) | -0.0237 | -0.0429 | 0.0087 | -0.0419 | -0.0536 | -0.0119 | -0.0013 | -0.0418 | -0.0083 | -0.0422 | -0.0183 | 0.0279 | -0.0304 | 0.0191 | 0.005 | 0.0076 | -0.0238 | -0.0135 | 0.0501 | 0.0881
6 | COc1cc2c(cc1OCCCCCOc1cc3c(cc1OC)C(=O)N1C=C(C)C[C@H]1C=N3)N=C[C@@H]1CC(C)=CN1C2=O [SG3199] + O=C(c1cc(Cc2n[nH]c(=O)c3ccccc23)ccc1F)N1CCN(C(=O)C2CC2)CC1 [Olaparib] (first compound max 0.001 µM, 7x7, partner max 10 µM) | -0.0133 | -0.0238 | -0.0231 | -0.016 | -0.0581 | -0.0444 | -0.0062 | -0.0391 | -0.0164 | -0.001 | -0.0032 | 0.0002 | -0.0403 | 0.0274 | -0.0471 | -0.0263 | -0.0401 | -0.0374 | -0.0267 | -0.0422
7 | COc1nnc2ccc(N3CCC(c4ccc(OCCN5CCN(C)C(=O)[C@H]5C)cc4)CC3)nn12 [AZD5153] + Cn1cnc2c(F)c(Nc3ccc(Br)cc3Cl)c(C(=O)NOCCO)cc21 [Selumetinib] (first compound max 1 µM, 7x7, partner max 10 µM) | -0.0196 | 0.0059 | 0.0214 | 0.0425 | -0.045 | -0.0134 | -0.0222 | 0.0128 | -0.0417 | -0.0133 | -0.0064 | -0.0445 | -0.0864 | -0.0138 | -0.0164 | 0.0279 | 0.0168 | 0.019 | -0.0499 | -0.0004
8 | CC(=O)c1c(C)c2cnc(Nc3ccc(N4CCNCC4)cn3)nc2n(C2CCCC2)c1=O [Palbociclib] + Cn1cnc2c(F)c(Nc3ccc(Br)cc3Cl)c(C(=O)NOCCO)cc21 [Selumetinib] (first compound max 10 µM, 7x7, partner max 10 µM) | -0.026 | -0.0141 | -0.0397 | 0.0303 | -0.0052 | -0.0121 | -0.0271 | -0.0394 | -0.0334 | -0.0509 | 0.0242 | -0.0103 | -0.0238 | 0.0342 | 0.0418 | -0.0301 | 0.0126 | 0.0282 | 0.0495 | -0.0089
9 | Cc1c2c(nn1C)CSCc1cc(n(C)n1)CSc1cc(c3ccccc3c1)OCCCc1c(C(=O)O)n(C)c3c-2c(Cl)ccc13 [AZD5991] + C1CN(CCC1(C(=O)N[C@@H](CCO)C2=CC=C(C=C2)Cl)N)C3=NC=NC4=C3C=CN4 [Capivasertib] (first compound max 1 µM, 7x7, partner max 3 µM) | -0.0058 | -0.0822 | 0.0131 | -0.0234 | -0.0473 | -0.0119 | 0.0177 | -0.0231 | 0.0276 | -0.0119 | 0.0026 | 0.0312 | -0.0005 | -0.0079 | 0.0263 | 0.045 | -0.021 | -0.0161 | 0.0708 | 0.0273
10 | NC1(C(=O)N[C@@H](CCO)c2ccc(Cl)cc2)CCN(c2ncnc3[nH]ccc23)CC1 [Capivasertib] + CCN(CCO)CCCOc1ccc2c(Nc3cc(CC(=O)Nc4cccc(F)c4)[nH]n3)ncnc2c1 [AZD2811] (first compound max 10 µM, 7x7, partner max 1 µM) | -0.0738 | -0.0676 | -0.0014 | -0.0034 | -0.0459 | -0.0431 | -0.0523 | -0.035 | -0.021 | -0.0115 | 0.0122 | 0.0021 | -0.0545 | -0.0005 | -0.0242 | 0.0262 | -0.0113 | -0.0032 | 0.0781 | -0.044
11 | COc1cccc(OCCCN)c1-c1cc(Nc2cnc(C#N)cn2)n[nH]1 [Prexasertib] + CCc1c2c(nc3ccc(O)cc13)-c1cc3c(c(=O)n1C2)COC(=O)[C@]3(O)CC [SN-38] (first compound max 1 µM, 7x7, partner max 0.3 µM) | -0.0204 | 0.0169 | -0.0065 | 0.0172 | -0.058 | -0.074 | 0.0633 | 0.0683 | -0.0201 | -0.0408 | -0.0317 | -0.0279 | 0.0111 | -0.0099 | 0.0162 | -0.0269 | -0.0012 | -0.0388 | 0.0067 | -0.0164
12 | Cc1c2c(nn1C)CSCc1cc(n(C)n1)CSc1cc(c3ccccc3c1)OCCCc1c(C(=O)O)n(C)c3c-2c(Cl)ccc13 [AZD5991] + C[C@@H]1COCCN1C2=NC(=NC(=C2)C3(CC3)[S@](=N)(=O)C)C4=C5C=CNC5=NC=C4 [AZD6738] (first compound max 1 µM, 7x7, partner max 10 µM) | 0.0555 | 0.0026 | 0.0192 | 0.0322 | 0.0298 | -0.0164 | -0.024 | 0.0106 | 0.0231 | 0.0285 | 0.0312 | 0.055 | -0.01 | 0.0505 | 0.0942 | 0.0799 | 0.0255 | -0.0199 | 0.0961 | 0.0592
13 | Cc1cc2ncnn2cc1Nc1ncc2c(n1)n(C1CCOCC1)c(=O)n2C [AZD7648] + C=CCn1c(=O)c2cnc(Nc3ccc(N4CCN(C)CC4)cc3)nc2n1-c1cccc(C(C)(C)O)n1 [AZD1775] (first compound max 10 µM, partner max 1 µM) | -0.0543 | -0.0257 | -0.0102 | 0.0119 | -0.004 | -0.0846 | -0.0055 | 0.0237 | -0.0011 | -0.0678 | 0.0125 | -0.0359 | -0.0502 | 0.0377 | -0.0219 | -0.0066 | -0.0108 | -0.0404 | 0.0508 | 0.0014
14 | NC1(C(=O)N[C@@H](CCO)c2ccc(Cl)cc2)CCN(c2ncnc3[nH]ccc23)CC1 [Capivasertib] + COc1nnc2ccc(N3CCC(c4ccc(OCCN5CCN(C)C(=O)[C@H]5C)cc4)CC3)nn12 [AZD5153] (first compound max 10 µM, 7x7, partner max 1 µM) | 0.0516 | 0.0056 | 0.0516 | -0.0206 | -0.0165 | -0.0209 | -0.0348 | 0.0067 | 0.119 | -0.034 | 0.0039 | 0.0469 | -0.0336 | -0.0322 | -0.0144 | 0.0387 | -0.141 | -0.0442 | 0.0774 | 0.0358
15 | COc1cccc(OCCCN)c1-c1cc(Nc2cnc(C#N)cn2)n[nH]1 [Prexasertib] + O=C(c1cc(Cc2n[nH]c(=O)c3ccccc23)ccc1F)N1CCN(C(=O)C2CC2)CC1 [Olaparib] (first compound max 1 µM, 7x7, partner max 10 µM) | -0.157 | -0.0011 | -0.0896 | -0.0583 | -0.0802 | -0.0442 | -0.0458 | -0.0274 | -0.0205 | -0.108 | 0.0359 | 0.0082 | -0.0706 | 0.0298 | -0.0501 | -0.0348 | -0.0456 | -0.0414 | -0.0338 | -0.0074
